According to patent publication US20250249013A1, “COMBINATION METABOLIC-EPIGENETIC TREATMENT FOR EARLY LUNG CANCER” (THE REGENTS OF THE UNIVERSITY OF CALIFORNIA, priority 2022, published 2025):

What was measured:
[1] = tested on: NCI-H358 cells; experiment: EZH2 inhibition with GSK126 in low glucose, western blot; format: cell-based, human; conditions: GSK126 0.25 μM
Method: (§1) Human lung cancer A549 (CCL-185) and NCI-H358 (CRL-5807) cells lines were purchased from American Type Culture Collection (ATCC, Manassas, VA). Cells were maintained in culture according to manufacturer protocol using Roswell Park Memorial Institute (RPMI) 1640 medium (Corning, Cat. #10-040CV) supplemented with 10% FBS and 5% 1× Pen-Strep and kept in 37° C. and 5% of CO2. Murine 2953A cell line was established in our lab from a KP lung tumor by tissue dissociation. This cell line was maintained in culture in Dulbecco's modified Eagle Medium (DMEM) medium (Corning, Cat. #10-017CV) with 5% FBS and 5% 1× Pen-Strep.
(§2) All experiments in cell lines were performed in biological triplicate. Cells were seeded at same confluence and grown for 5 days (and for some experiments overnight or up to 9 days or 30 days, as indicated in the figures and text) in different concentration of glucose: high (20 mM), low (1 mM) and for some experiments medium (5 mM), as indicated. We used mediums with glutamine and without glucose: RPMI (Corning Cat. #10-043CV) for A549 and NCI-H358 cells, DMEM (ThermoScientific Cat. #11566025) for 2953A cells, supplemented with 10% FBS, 5% of 1× Pen-Strep and complemented with D-Glucose to the desired final concentration, as indicated in the figures.
(§3) For total protein extraction, cells were harvested, washed twice with ice-cold PBS-EDTA (0.5 mm EDTA), lysed using RIPA buffer (50 mM Tris-HCl pH 7.6, 150 mM NaCl, 0.1% SDS, 0.5% C24H39NaO4, 1% NP-40, 2 mm EDTA, 50 mm NaF) for 15 min on ice and centrifuged at 13,000 rpm for 30 min at +4° C. The resulting protein extracts were quantified using BCA protein assay followed by analysis by SDS-PAGE and Western blotting.
(§4) Histones was extracted from A549, NCI-H358 and 2953A cell lines using the Histone extraction kit (Abcam) according to manufacturer instructions.
(§5) SDS-PAGE and Western blotting analyses were performed using standard protocols. For antibodies information, see Reagents and Tools Table. Western blot images were detected by iBright Imaging Systems (Thermo Fisher Scientific). The protein detected was normalized to Actin or H3 total antibodies, this last in case of histonic extract. Each immunodetection derived from the same membrane was performed with the same exposure times according to the manufacture's antibody guidelines and was cropped only for presentation purposes; this is indicated by a dotted line.

[2] = tested on: A549 cells; experiment: as above; format: cell-based, human; conditions: GSK126 0.25 μM
Method: as §1, §2, §3, §4, §5

[3] = tested on: LUAD; conditions: genetically engineered murine models and patient-derived xenografts; cited from earlier work
[4] = tested on: NCI-H358 cells; experiment: αKG rescue in low glucose, western blot and RT-PCR; format: cell-based, human
Method: as §1, §2
(§6) All αKG rescue experiments were conducted using 10 mM alpha-ketoglutarate (α-KG; Sigma) and α-Mannitol (Sigma) as osmotic control.
as §3, §4, §5
(§7) Total RNA was extracted from A549, NCI-H358 and 2953A by using TRI Reagent Solution (Applied Biosystem), according to manufacturer instruction. RNA concertation was assayed by Nanodrop 3000 spectrophotometer (Thermo Fisher Scientific). Then, 1 μg of RNA was treated with DNase I (Thermo Fisher Scientific) and used for cDNA preparation.
(§8) cDNA was prepared using 1 μg of RNA with SuperScript IV Reverse Transcriptase (Invitrogen). SYBR green-based RT-PCR kit (Biorad) was performed using human and mouse primers (See Table EV11). mRNA levels were normalized to GAPDH (ΔCt=Ctgene of interest-Ct GAPDH) and presented as relative mRNA expression (ΔΔCt=2-(ΔCtsample-ΔCtcontrol)). All primers were designed by NCBI Primer-BLAST and purchased from Integrated DNA Technologies.

[5] = tested on: A549 cells; experiment: αKG rescue in low glucose, western blot and RT-PCR; format: cell-based, human
Method: as §1, §2, §6, §3, §4, §5, §7, §8

[6] = tested on: A549 and NCI-H358 cells; experiment: RNA-seq, genes regulated consistently in both cell lines; format: cell-based, human; conditions: significantly regulated in at least 3 of the four conditions
Method: (§9) A549 and NCI-H358 cell lines were incubated in triplicate with high glucose (20 mM), low glucose (1 mM), and low glucose+dm-αKG (10 mM). Total RNA was extracted as previously described. RNA sequencing was performed by Med Genome. Sample quality control was performed using Quibit fluorometric (Agilent) and Tapestation bioanalyzer (Agilent). For library preparation TruSeq Stranded Total RNA kit (Illumina) was used and libraries were sequenced on NovaSeq platform (Illumina). The FASTQ data generated was used for gene expression analysis, performed as described in Nassa et al (Nassa et al, 2019).
Briefly, the raw sequence files generated (.fastq files) underwent quality control analysis using FASTQC (http://www.bioinformatics.babraham.ac.uk/projects/fastqc/) and adapter sequences were removed using Trimmomatic version 0.38 (Bolger et al, 2014) Filtered reads were aligned on human genome (assembly hg38) considering genes present in GenCode Release 35 (GRCh38.p12) using STAR v2.7.6a (Dobin et al, 2013) with standard parameters. Quantification of expressed genes was performed using featureCounts (Liao et al, 2014) and differentially expressed genes were identified using DESeq2 (Love et al, 2014). A given RNA was considered expressed when detected by at least ≥10 raw reads. […]

[7] = tested on: 2953A cells; experiment: αKG rescue in low glucose, western blot and RT-PCR; format: cell-based, mouse; conditions: low glucose 5 days
Method: as §1, §2, §6, §3, §4, §5, §7, §8

[8] = tested on: NCI-H358 cells; experiment: RNA-seq, low glucose with dm-αKG; format: cell-based, human; conditions: NCI-H358, low glucose + dm-αKG 10 mM, five days
Method: as §9
(§10) Briefly, the raw sequence files generated (.fastq files) underwent quality control analysis using FASTQC (http://www.bioinformatics.babraham.ac.uk/projects/fastqc/) and adapter sequences were removed using Trimmomatic version 0.38 (Bolger et al, 2014) Filtered reads were aligned on human genome (assembly hg38) considering genes present in GenCode Release 35 (GRCh38.p12) using STAR v2.7.6a (Dobin et al, 2013) with standard parameters. Quantification of expressed genes was performed using featureCounts (Liao et al, 2014) and differentially expressed genes were identified using DESeq2 (Love et al, 2014). A given RNA was considered expressed when detected by at least ≥10 raw reads.
(§11) Differential expression was reported as Ifold-changel (FC)[…] along with associated adjusted pvalues≤0.05 computed according to Benjamini-Hochberg. Gene Set Enrichment Analysis (GSEA) was performed to examine pathway enrichment for the differential expressed genes with the Molecular Signature Database “Hallmarks” gene set collection (Liberzon et al, 2015). Only those with an FDR […] have been selected.

[9] = tested on: A549 cells; experiment: RNA-seq, low glucose with dm-αKG; format: cell-based, human; conditions: A549, low glucose + dm-αKG 10 mM, five days
Method: as §9, §10, §11

[10] = A549, low glucose (1 mM) 5 days
[11] = NCI-H358, low glucose 5 days, dm-αKG
[12] = NCI-H358, low glucose 5 days, dm-αKG 10 mM
[13] = A549, low glucose 5 days, dm-αKG
[14] = A549, low glucose 5 days, dm-αKG 10 mM

Structure (SMILES): CC[C@H](C)n1cc(C)c2c(C(=O)NCc3c(C)cc(C)[nH]c3=O)cc(-c3ccc(N4CCNCC4)nc3)cc21 [GSK126]
- EZH2 activity [1]: inhibited
- expression of FoxA2, western blot [1]: rescued
- tri-methylation of H3K27, western blot [1]: rescued
- expression of FoxA2, western blot [2, 10]: rescued
- tri-methylation of H3K27, western blot [2, 10]: rescued
- EZH2 activity ([2]; A549, low glucose): inhibited

Structure (SMILES): Cc1ccc([C@@H]2O[C@H](CO)[C@@H](O)[C@H](O)[C@H]2O)cc1Cc1ccc(-c2ccc(F)cc2)s1 [canagliflozin]
- development of LUAD [3]: significantly delays
- survival [3]: prolongs survival
- tumor growth [3]: reduces tumor growth

Structure (SMILES): COC(=O)CCC(=O)C(=O)OC [dm-αKG, dimethyl-αKG]
- HIF1α and HIF2α protein, western blot, control condition ([4]; NCI-H358, cells growing in low glucose (so in the source), dm-αKG): did not have any effect
- H3K4 hyper-methylation, western blot on histone extracts [4, 11]: reverse
- H3K9 hyper-methylation, western blot on histone extracts [4, 11]: reverse
- H3K27 hyper-methylation, western blot on histone extracts [4, 11]: reverse
- H3K27 hypo-acetylation, western blot on histone extracts [4, 11]: reverse
- low glucose-induced increase of Slug, western blot [4, 11]: rescued
- low glucose-induced repression of PHD3 expression, RT-PCR [4, 11]: rescued
- low glucose-induced up-regulation of HIF1α mRNA, RT-PCR [4, 11]: rescued
- low glucose-induced up-regulation of HIF1α protein, western blot [4, 11]: reversed
- low glucose-induced up-regulation of HIF2α mRNA, RT-PCR [4, 11]: rescued
- low glucose-induced up-regulation of HIF2α protein, western blot [4, 11]: reversed
- GLUT1 expression, qPCR [4, 12]: reduced
- low glucose-induced inhibition of FoxA2 mRNA, qPCR [4, 12]: rescued
- low glucose-induced inhibition of TTF-1 mRNA, qPCR [4, 12]: rescued
- low glucose-induced reduction in FOXA2 protein, western blot [4, 12]: rescued
- low glucose-induced reduction in TTF1 protein, western blot [4, 12]: rescued
- HIF1α and HIF2α protein, western blot, control condition ([5]; A549, cells growing in low glucose (so in the source), dm-αKG): did not have any effect
- H3K4 hyper-methylation, western blot on histone extracts [5, 13]: reverse
- H3K9 hyper-methylation, western blot on histone extracts [5, 13]: reverse
- H3K27 hyper-methylation, western blot on histone extracts [5, 13]: reverse
- H3K27 hypo-acetylation, western blot on histone extracts [5, 13]: reverse
- low glucose-induced increase of Slug, western blot [5, 13]: rescued
- low glucose-induced reduction in Snail, western blot [5, 13]: partially rescued
- low glucose-induced reduction in ZEB1, western blot [5, 13]: partially rescued
- low glucose-induced repression of PHD3 expression, RT-PCR [5, 13]: rescued
- low glucose-induced up-regulation of HIF1α mRNA, RT-PCR [5, 13]: rescued
- low glucose-induced up-regulation of HIF1α protein, western blot [5, 13]: reversed
- low glucose-induced up-regulation of HIF2α mRNA, RT-PCR [5, 13]: rescued
- low glucose-induced up-regulation of HIF2α protein, western blot [5, 13]: reversed
- GLUT1 expression, qPCR [5, 14]: reduced
- low glucose-induced inhibition of FoxA2 mRNA, qPCR [5, 14]: rescued
- low glucose-induced reduction in FOXA2 protein, western blot [5, 14]: rescued
- genes down-regulated by low glucose consistently in both cell lines and rescued by dm-αKG [6]: 445 genes
- genes up-regulated by low glucose consistently in both cell lines and rescued by dm-αKG [6]: 524 genes
- H3K4 hyper-methylation, western blot on histone extracts ([7]; dm-αKG): reverse
- H3K9 hyper-methylation, western blot on histone extracts ([7]; dm-αKG): reverse
- H3K27 hyper-methylation, western blot on histone extracts ([7]; dm-αKG): reverse
- H3K27 hypo-acetylation, western blot on histone extracts ([7]; dm-αKG): reverse
- GLUT1 expression, qPCR ([7]; dm-αKG 10 mM): reduced
- low glucose-induced inhibition of FoxA2 mRNA, qPCR ([7]; dm-αKG 10 mM): rescued
- low glucose-induced reduction in FOXA2 protein, western blot ([7]; dm-αKG 10 mM): rescued
- number of low glucose down-regulated genes rescued by dm-αKG ([8]; 942 genes down-regulated by low glucose): 370 genes
- number of low glucose up-regulated genes rescued by dm-αKG ([8]; 1,335 genes up-regulated by low glucose): 510 genes
- number of low glucose down-regulated genes rescued by dm-αKG ([9]; 2,024 genes down-regulated by low glucose): 1,431 genes
- number of low glucose up-regulated genes rescued by dm-αKG ([9]; 2,394 genes up-regulated by low glucose): 1,634 genes
